Measured values from patent publication US8791130B2, “Aminopyrimidine derivatives as LRRK2 modulators” (Genentech, Inc., priority 2011, dated 2014).

What follows are compounds tested against LRRK2 (Homo sapiens (Human), UniProt Q5S007, G2019S) (assay: In Vitro LRRK2 LabChip Assay (LRRK2 Ki)).
Format: biochemical
Description: In Vitro LRRK2 LabChip Assay This assay was used to determine a compound's potency in inhibiting activity of LRRK2 by determining, Kiapp, IC50, or percent inhibition values. In a polypropylene plate, LRRK2, fluorescently-labeled peptide substrate, ATP and test compound were incubated together. Using a LabChip 3000 (Caliper Life Sciences), after the reaction the substrate was separated by capillary electrophoresis into two populations: phosphorylated and unphosphorylated. The relative amounts of each were quantitated by fluorescence intensity. LRRK2 Ki was determined according to the equation: […]))). Ki values in Table 4 and elsewhere herein are shown in μM. […] Substrate: 5[…] Non-binding plate: 384 well clear V-bottom polypropylene plates (Greiner cat #781280). ATP: 10 mM ATP (Cell Signaling cat #9804). Triton X-100: Triton X-100. Brij-35: Brij-35 (Pierce cat #20150). […] DMSO: DMSO (Sigma cat #34869-100 ML). […] Compound Plate Preparation: For serial dilutions, 34.6 μl DMSO was added to columns 3-24. For the assay controls, 37.5 μl DMSO was added to columns 1 and 2 of rows A and […]-028831 (Staurosporine) was added to columns 1 and 2, row B. […] A Precision instrument was used to perform 1:3.16 serial dilutions (“PLK_BM_serial_halflog”). ATP Preparation: ATP was diluted to 282.1 μM in Complete Kinase Buffer (final concentration was 130 μM). […] Assay Procedure: To a 50 μl polypropylene plate, 5 μl/well buffer/substrate was added by hand to Blank wells. A Biomek FX was used to start the kinase reaction (“PLK SAR 23 ATP”). […] 5 μl/well kinase/substrate in Assay Plate; The plate was incubated for 2 hours in the dark. Biomek FX was used to stop the kinase reaction (“PLK Stop”), and 10 μl/well Stop solution was added to the Assay Plate.

LRRK2, sequence (Q5S007 970-2527 G2019S): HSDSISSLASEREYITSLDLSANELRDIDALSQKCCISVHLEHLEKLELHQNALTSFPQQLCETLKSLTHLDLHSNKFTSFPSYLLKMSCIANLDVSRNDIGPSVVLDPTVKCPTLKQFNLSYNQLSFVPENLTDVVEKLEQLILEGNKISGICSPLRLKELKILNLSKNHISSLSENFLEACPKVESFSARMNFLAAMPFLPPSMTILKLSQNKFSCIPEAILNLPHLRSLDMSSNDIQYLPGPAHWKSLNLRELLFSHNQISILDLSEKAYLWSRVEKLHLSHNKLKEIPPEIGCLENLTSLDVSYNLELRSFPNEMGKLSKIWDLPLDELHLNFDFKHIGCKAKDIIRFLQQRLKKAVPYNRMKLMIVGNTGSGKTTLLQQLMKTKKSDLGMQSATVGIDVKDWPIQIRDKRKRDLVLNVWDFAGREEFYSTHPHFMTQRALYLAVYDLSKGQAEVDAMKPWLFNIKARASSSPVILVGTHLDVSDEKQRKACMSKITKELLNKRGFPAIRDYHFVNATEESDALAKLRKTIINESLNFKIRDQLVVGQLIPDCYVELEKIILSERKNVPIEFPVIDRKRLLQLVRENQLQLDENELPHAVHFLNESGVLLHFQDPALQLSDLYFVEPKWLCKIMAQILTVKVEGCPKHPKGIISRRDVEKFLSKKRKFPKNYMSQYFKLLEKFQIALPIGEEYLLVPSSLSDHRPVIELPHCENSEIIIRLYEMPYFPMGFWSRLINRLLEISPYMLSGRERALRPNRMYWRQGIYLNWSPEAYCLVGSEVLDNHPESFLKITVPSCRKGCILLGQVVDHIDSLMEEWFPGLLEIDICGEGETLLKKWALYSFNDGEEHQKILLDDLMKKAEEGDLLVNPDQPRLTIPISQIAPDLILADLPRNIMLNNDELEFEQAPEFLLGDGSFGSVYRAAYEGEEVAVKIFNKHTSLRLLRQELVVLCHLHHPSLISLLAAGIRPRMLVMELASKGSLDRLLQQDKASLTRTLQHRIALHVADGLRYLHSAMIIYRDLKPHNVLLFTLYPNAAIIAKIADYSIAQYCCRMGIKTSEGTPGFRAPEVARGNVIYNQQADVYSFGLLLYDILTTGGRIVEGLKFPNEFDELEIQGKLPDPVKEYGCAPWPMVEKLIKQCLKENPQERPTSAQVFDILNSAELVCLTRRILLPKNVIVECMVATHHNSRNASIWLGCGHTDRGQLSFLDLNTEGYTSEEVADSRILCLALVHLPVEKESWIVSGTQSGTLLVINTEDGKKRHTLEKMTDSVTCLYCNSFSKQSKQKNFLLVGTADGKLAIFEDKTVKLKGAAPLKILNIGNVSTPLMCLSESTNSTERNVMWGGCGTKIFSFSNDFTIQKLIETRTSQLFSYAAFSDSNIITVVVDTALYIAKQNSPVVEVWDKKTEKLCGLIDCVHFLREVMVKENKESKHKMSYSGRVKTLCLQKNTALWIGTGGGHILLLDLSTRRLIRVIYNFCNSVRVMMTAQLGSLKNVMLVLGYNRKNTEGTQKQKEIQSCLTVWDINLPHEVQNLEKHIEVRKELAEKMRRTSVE

SMILES	Ki
CNc1nc(Nc2ccc(-c3nc(C)no3)cc2Cl)ncc1Cl [Compound 34, 5-chloro-N^2-(2-chloro-4-(3-methyl-1,2,4-oxadiazol-5-yl)phenyl)-N^4-methylpyrimidine-2,4-diamine]	80 nM
CNc1nc(Nc2ccc(-c3cnn(C)c3)cc2OC)ncc1Cl [Compound 35, 5-chloro-N^2-(2-methoxy-4-(1-methyl-1H-pyrazol-4-yl)phenyl)-N^4-methylpyrimidine-2,4-diamine]	2 nM
CNc1nc(Nc2cc(OC)c(-c3nc(C)no3)cc2Cl)ncc1Cl [Compound 36, 5-chloro-N^2-(2-chloro-5-methoxy-4-(3-methyl-1,2,4-oxadiazol-5-yl)phenyl)-N^4-methylpyrimidine-2,4-diamine]	44 nM
CNc1nc(Nc2cc(OC)c(-c3nnc(C)o3)cc2Cl)ncc1Cl [Compound 37, 5-chloro-N^2-(2-chloro-5-methoxy-4-(5-methyl-1,3,4-oxadiazol-2-yl)phenyl)-N^4-methylpyrimidine-2,4-diamine]	12 nM
CNc1nc(Nc2ccc(-c3cn(C)nc3C)cc2OC)ncc1C(F)(F)F [Compound 38, N2-(4-(1,3-dimethyl-1H-pyrazol-4-yl)-2-methoxyphenyl)-N4-methyl-5-(trifluoromethyl) pyrimidine-2,4-diamine]	2 nM
CNc1nc(Nc2ccc(-c3cnn(C)c3C)cc2OC)ncc1C(F)(F)F [Compound 39, N2-(4-(1,5-dimethyl-1H-pyrazol-4-yl)-2-methoxyphenyl)-N4-methyl-5-(trifluoromethyl) pyrimidine-2,4-diamine]	3 nM
CNc1nc(Nc2cc(F)c(-c3cnn(C)c3C(=O)N(C)C)cc2OC)ncc1C(F)(F)F [Compound 41, 4-(2-fluoro-5-methoxy-4-(4-(methylamino)-5-(trifluoromethyl)pyrimidin-2-ylamino)phenyl)-N,N,1-trimethyl-1H-pyrazole-5-carboxamide]	1 nM
CNc1nc(Nc2cc(F)c(-n3nnnc3C)cc2OC)ncc1C(F)(F)F [Compound 42, N2-(5-fluoro-2-methoxy-4-(5-methyl-1H-tetrazol-1-yl)phenyl)-N4-methyl-5-(trifluoromethyl) pyrimidine-2,4-diamine]	3 nM
CNc1nc(Nc2cc(F)c(-c3cnnn3C)cc2OC)ncc1C(F)(F)F [Compound 43, N2-(5-fluoro-2-methoxy-4-(1-methyl-1H-1,2,3-triazol-5-yl)phenyl)-N4-methyl-5-(trifluoromethyl) pyrimidine-2,4-diamine]	2 nM
CNc1nc(Nc2cc(F)c(-c3cnn(C4COC4)c3)cc2OC)ncc1C(F)(F)F [Compound 44, N2-(5-fluoro-2-methoxy-4-(1-(oxetan-3-yl)-1H-pyrazol-4-yl)phenyl)-N4-methyl-5-(trifluoromethyl) pyrimidine-2,4-diamine]	10 nM
CNc1nc(Nc2cc(C)c(-n3nnnc3C)cc2OC)ncc1C(F)(F)F [Compound 45, N2-(2-methoxy-5-methyl-4-(5-methyl-1H-tetrazol-1-yl)phenyl)-N4-methyl-5-(trifluoromethyl) pyrimidine-2,4-diamine]	1 nM
CNc1nc(Nc2cc(C)c(-n3nnnc3COC)cc2OC)ncc1C(F)(F)F [Compound 46, N2-(2-methoxy-4-(5-(methoxymethyl)-1H-tetrazol-1-yl)-5-methylphenyl)-N4-methyl-5-(trifluuromethyl) pyrimidine-2,4-diamine]	1 nM
CNc1nc(Nc2cc(F)c(-n3nc(C)cc3COC)cc2OC)ncc1C(F)(F)F [Compound 47, N2-(5-fluoro-2-methoxy-4-(5-(methoxymethyl)-3-methyl-1H-pyrazol-1-yl)phenyl)-N4-methyl-5-(trifluoromethyl) pyrimidine-2,4-diamine]	5 nM
CNc1nc(Nc2ccc(-n3nc(C)cc3COC)cc2OC)ncc1C(F)(F)F [Compound 48, N2-(2-methoxy-4-(5-(methoxymethyl)-3-methyl-1H-pyrazol-1-yl)phenyl)-N4-methyl-5-(trifluoromethyl) pyrimidine-2,4-diamine]	10 nM
CNc1nc(Nc2cc(F)c(-n3nnnc3COC)cc2OC)ncc1C(F)(F)F [Compound 49, N2-(5-fluoro-2-methoxy-4-(5-(methoxymethyl)-1H-tetrazol-1-yl)phenyl)-N4-methyl-5-(trifluoromethyl) pyrimidine-2,4-diamine]	4 nM
